Test results taken from patent publication US12692289B2, “Tumor-specific peptide antigens for ovarian cancer and uses thereof” (UNIVERSITE DE MONTREAL, priority 2019, dated 2026).
Peptide text beside a SMILES is read from it.

System: TCGA-OV cohort
Assay: TCGA-OV cohort analysis: survival and immune cell scores by aeTSA RNA expression and HLA allotype
Design: species or system human
Conditions: immune cell scores from RNA-Seq, ANOVA, p<0.05
Text: Clinical and genomic data from TCGA. Processed and normalized level 3 data with hg38 for HM27 methylation, DNA copy number variation, RNA-Seq gene expression as well as the clinical data were downloaded from the TCGA open-access database using the R package ‘TCGAbiolinks’ (31). Arm-level DNA copy number alterations were downloaded from Broad Institute TCGA Genome Data Analysis Center (doi:10.7908/C1P84B9Q).
Immune cell scores. Immune cell scores representing immune cell populations were estimated based on RNA-Seq data. For each tumor, scores were estimated as the average of log-transformed FPKM values of their marker genes as described by Danaher et al. (32).
Statistical analyses and data visualization. Analyses and figures were performed using the R v3.5.1 or Python v2.7.6. The ‘gplots’ package in R was used to generate heatmaps of TSA coding region expression in tumors. Correlation tests were done using R function ‘cor.test’ with the Spearman's method unless otherwise indicated. Tests involving comparisons of distributions were performed with ANOVA test, and pairwise comparisons between groups were performed by Wilcoxon rank sum test. Log-rank P values for survival analysis were calculated with the ‘survival’ package.

## CSCC[C@H](NC(=O)[C@H](CCC(N)=O)NC(=O)[C@H](Cc1c[nH]cn1)NC(=O)[C@@H](NC(=O)[C@@H](N)CCCNC(=N)N)[C@@H](C)O)C(=O)N[C@@H](CC(N)=O)C(=O)N[C@H](C(=O)N[C@@H](Cc1ccccc1)C(=O)N[C@@H](CCC(N)=O)C(=O)N[C@@H](CCCNC(=N)N)C(=O)O)[C@@H](C)O (H-RTHQMNTFQR-OH; N-terminus and C-terminus assumed)
  correlation of aeTSA expression and relevant HLA allotype with tumor infiltration by T cells and cytotoxic T cells: positive correlation
